Data taken from the NIST ThermoML archive (doi:10.1016/j.jct.2016.03.026).
Numbers after ± are expanded uncertainties.

Assay: xn = mol fraction of the nth substance listed
Conditions: 263.15 K, Fluid (supercritical or subcritical phases), Vibrating tube method, x1 = 0.97

O=C=O [carbon dioxide] + CO
Conditions	mass density [kg/m3]
7525 kPa	1006.96 ± 0.8
7550 kPa	1007.04 ± 0.8
7575 kPa	1007.2 ± 0.8
7600 kPa	1007.28 ± 0.8
7625 kPa	1007.38 ± 0.8
7650 kPa	1007.53 ± 0.8
7675 kPa	1007.61 ± 0.8
7700 kPa	1007.76 ± 0.8
7725 kPa	1007.86 ± 0.8
7750 kPa	1007.94 ± 0.8
7775 kPa	1008.1 ± 0.8
7800 kPa	1008.18 ± 0.8
7825 kPa	1008.35 ± 0.8
7850 kPa	1008.43 ± 0.8
7875 kPa	1008.51 ± 0.8
7900 kPa	1008.68 ± 0.8
7925 kPa	1008.76 ± 0.8
7950 kPa	1008.84 ± 0.8
7975 kPa	1009 ± 0.8
8000 kPa	1009.08 ± 0.8
8025 kPa	1009.16 ± 0.8
8050 kPa	1009.33 ± 0.8
8075 kPa	1009.41 ± 0.8
8100 kPa	1009.54 ± 0.8
8125 kPa	1009.66 ± 0.8
8150 kPa	1009.74 ± 0.8
8175 kPa	1009.86 ± 0.8
8200 kPa	1009.98 ± 0.8
8225 kPa	1010.06 ± 0.8
8250 kPa	1010.23 ± 0.8
8275 kPa	1010.31 ± 0.8
8300 kPa	1010.39 ± 0.8
8325 kPa	1010.56 ± 0.8
8350 kPa	1010.64 ± 0.8
8375 kPa	1010.74 ± 0.8
8400 kPa	1010.88 ± 0.8
8425 kPa	1010.96 ± 0.8
8450 kPa	1011.04 ± 0.8
8475 kPa	1011.21 ± 0.8
8500 kPa	1011.29 ± 0.8
8525 kPa	1011.44 ± 0.8
8550 kPa	1011.54 ± 0.8
8575 kPa	1011.62 ± 0.8
8600 kPa	1011.73 ± 0.8
8625 kPa	1011.86 ± 0.8
8650 kPa	1011.94 ± 0.8
8675 kPa	1012.05 ± 0.8
8700 kPa	1012.19 ± 0.8
8725 kPa	1012.27 ± 0.8
8750 kPa	1012.41 ± 0.8
8775 kPa	1012.52 ± 0.8
8800 kPa	1012.6 ± 0.8
8825 kPa	1012.76 ± 0.8
8850 kPa	1012.85 ± 0.8
8875 kPa	1012.93 ± 0.8
8900 kPa	1013.03 ± 0.8
8925 kPa	1013.17 ± 0.8
8950 kPa	1013.25 ± 0.8
8975 kPa	1013.35 ± 0.8
9000 kPa	1013.49 ± 0.8
9025 kPa	1013.58 ± 0.8
9050 kPa	1013.66 ± 0.8
9075 kPa	1013.83 ± 0.8
9100 kPa	1013.91 ± 0.8
9125 kPa	1013.99 ± 0.8
9150 kPa	1014.08 ± 0.8
9175 kPa	1014.23 ± 0.8
9200 kPa	1014.31 ± 0.8
9225 kPa	1014.39 ± 0.8
9250 kPa	1014.56 ± 0.8
9275 kPa	1014.64 ± 0.8
9300 kPa	1014.72 ± 0.8
9325 kPa	1014.89 ± 0.8
9350 kPa	1014.97 ± 0.8
9375 kPa	1015.05 ± 0.8
9400 kPa	1015.13 ± 0.8
9425 kPa	1015.3 ± 0.8
9450 kPa	1015.38 ± 0.8
9475 kPa	1015.46 ± 0.8
9500 kPa	1015.54 ± 0.8
9525 kPa	1015.7 ± 0.8
9550 kPa	1015.78 ± 0.8
9575 kPa	1015.87 ± 0.8
9600 kPa	1016.03 ± 0.8
9625 kPa	1016.11 ± 0.8
9650 kPa	1016.19 ± 0.8
9675 kPa	1016.28 ± 0.8
9700 kPa	1016.44 ± 0.8
9725 kPa	1016.52 ± 0.8
9750 kPa	1016.6 ± 0.8
9775 kPa	1016.77 ± 0.8
9800 kPa	1016.85 ± 0.8
9825 kPa	1016.93 ± 0.8
9850 kPa	1017.01 ± 0.8
9875 kPa	1017.17 ± 0.8
9900 kPa	1017.25 ± 0.8
9925 kPa	1017.34 ± 0.8
9950 kPa	1017.47 ± 0.8
9975 kPa	1017.58 ± 0.8
10000 kPa	1017.66 ± 0.8
10025 kPa	1017.74 ± 0.8
10050 kPa	1017.83 ± 0.8
10075 kPa	1017.99 ± 0.8
10100 kPa	1018.07 ± 0.8
10125 kPa	1018.15 ± 0.8
10150 kPa	1018.23 ± 0.8
10175 kPa	1018.34 ± 0.8
10200 kPa	1018.48 ± 0.8
10225 kPa	1018.56 ± 0.8
10250 kPa	1018.68 ± 0.8
10275 kPa	1018.81 ± 0.8
10300 kPa	1018.89 ± 0.8
10325 kPa	1018.97 ± 0.8
10350 kPa	1019.09 ± 0.8
10375 kPa	1019.21 ± 0.8
10400 kPa	1019.3 ± 0.8
10425 kPa	1019.38 ± 0.8
10450 kPa	1019.46 ± 0.8
10475 kPa	1019.62 ± 0.8
10500 kPa	1019.7 ± 0.8
10525 kPa	1019.78 ± 0.8
10550 kPa	1019.87 ± 0.8
10575 kPa	1020.02 ± 0.8
10600 kPa	1020.11 ± 0.8
10625 kPa	1020.19 ± 0.8
10650 kPa	1020.27 ± 0.8
10675 kPa	1020.44 ± 0.8
10700 kPa	1020.52 ± 0.8
10725 kPa	1020.6 ± 0.8
10750 kPa	1020.68 ± 0.8
10775 kPa	1020.76 ± 0.8
10800 kPa	1020.93 ± 0.8
10825 kPa	1021.01 ± 0.8
10850 kPa	1021.09 ± 0.8
10875 kPa	1021.17 ± 0.8
10900 kPa	1021.25 ± 0.8
10925 kPa	1021.42 ± 0.8
10950 kPa	1021.5 ± 0.8
10975 kPa	1021.58 ± 0.8
11000 kPa	1021.66 ± 0.8
11025 kPa	1021.83 ± 0.8
11050 kPa	1021.91 ± 0.8
11075 kPa	1021.99 ± 0.8
11100 kPa	1022.07 ± 0.8
11125 kPa	1022.15 ± 0.8
11150 kPa	1022.29 ± 0.8
11175 kPa	1022.4 ± 0.8
11200 kPa	1022.48 ± 0.8
11225 kPa	1022.56 ± 0.8
11250 kPa	1022.64 ± 0.8
11275 kPa	1022.8 ± 0.8
11300 kPa	1022.89 ± 0.8
11325 kPa	1022.97 ± 0.8
11350 kPa	1023.05 ± 0.8
11375 kPa	1023.13 ± 0.8
11400 kPa	1023.29 ± 0.8
11425 kPa	1023.38 ± 0.8
11450 kPa	1023.46 ± 0.8
11475 kPa	1023.54 ± 0.8
11500 kPa	1023.62 ± 0.8
11525 kPa	1023.75 ± 0.8
11550 kPa	1023.86 ± 0.8
11575 kPa	1023.95 ± 0.8
11600 kPa	1024.03 ± 0.8
11625 kPa	1024.11 ± 0.8
11650 kPa	1024.21 ± 0.8
11675 kPa	1024.35 ± 0.8
11700 kPa	1024.44 ± 0.8
11725 kPa	1024.52 ± 0.8
11750 kPa	1024.6 ± 0.8
11775 kPa	1024.74 ± 0.8
11800 kPa	1024.84 ± 0.8
11825 kPa	1024.93 ± 0.8
11850 kPa	1025.01 ± 0.8
11875 kPa	1025.09 ± 0.8
11900 kPa	1025.19 ± 0.8
11925 kPa	1025.29 ± 0.8
11950 kPa	1025.41 ± 0.8
11975 kPa	1025.5 ± 0.8
12000 kPa	1025.58 ± 0.8
12025 kPa	1025.66 ± 0.8
12050 kPa	1025.75 ± 0.8
12075 kPa	1025.9 ± 0.8
12100 kPa	1025.98 ± 0.8
12125 kPa	1026.07 ± 0.8
12150 kPa	1026.15 ± 0.8
12175 kPa	1026.31 ± 0.8
12200 kPa	1026.39 ± 0.8
12225 kPa	1026.47 ± 0.8
12250 kPa	1026.56 ± 0.8
12275 kPa	1026.64 ± 0.8
12300 kPa	1026.72 ± 0.8
12325 kPa	1026.88 ± 0.8
12350 kPa	1026.96 ± 0.8
12375 kPa	1027.05 ± 0.8
12400 kPa	1027.13 ± 0.8
12425 kPa	1027.21 ± 0.8
12450 kPa	1027.29 ± 0.8
12475 kPa	1027.38 ± 0.8
12500 kPa	1027.53 ± 0.8
12525 kPa	1027.62 ± 0.8
12550 kPa	1027.7 ± 0.8
12575 kPa	1027.78 ± 0.8
12600 kPa	1027.86 ± 0.8
12625 kPa	1027.96 ± 0.8
12650 kPa	1028.09 ± 0.8
12675 kPa	1028.19 ± 0.8
12700 kPa	1028.27 ± 0.8
12725 kPa	1028.35 ± 0.8
12750 kPa	1028.43 ± 0.8
12775 kPa	1028.51 ± 0.8
12800 kPa	1028.6 ± 0.8
12825 kPa	1028.76 ± 0.8
12850 kPa	1028.84 ± 0.8
12875 kPa	1028.92 ± 0.8
12900 kPa	1029 ± 0.8
12925 kPa	1029.08 ± 0.8
12950 kPa	1029.2 ± 0.8
12975 kPa	1029.3 ± 0.8
13000 kPa	1029.41 ± 0.8
13025 kPa	1029.49 ± 0.8
13050 kPa	1029.57 ± 0.8
13075 kPa	1029.65 ± 0.8
13100 kPa	1029.73 ± 0.8
13125 kPa	1029.88 ± 0.8
13150 kPa	1029.94 ± 0.8
13175 kPa	1030.06 ± 0.8
13200 kPa	1030.14 ± 0.8
13225 kPa	1030.22 ± 0.8
13250 kPa	1030.31 ± 0.8
13275 kPa	1030.39 ± 0.8
13300 kPa	1030.53 ± 0.8
13325 kPa	1030.63 ± 0.8
13350 kPa	1030.71 ± 0.8
13375 kPa	1030.8 ± 0.8
13400 kPa	1030.88 ± 0.8
13425 kPa	1030.96 ± 0.8
13450 kPa	1031.04 ± 0.8
13475 kPa	1031.14 ± 0.8
13500 kPa	1031.29 ± 0.8
13525 kPa	1031.37 ± 0.8
13550 kPa	1031.45 ± 0.8
13575 kPa	1031.53 ± 0.8
13600 kPa	1031.61 ± 0.8
